Numbers after ± are expanded uncertainties.
Details: 101.33 kPa, Liquid, Vibrating tube method

Compound | mass density (278.15 K) | mass density (283.15 K) | mass density (288.15 K) | mass density (293.15 K) | mass density (298.15 K) | mass density (303.15 K) | mass density (308.15 K) | mass density (313.15 K) | mass density (318.15 K) | mass density (323.15 K) | mass density (328.15 K) | mass density (333.15 K) | mass density (338.15 K) | mass density (343.15 K) | mass density (348.15 K) | mass density (353.15 K)
CCN(CC)c1c(N(CC)CC)[c+]1N(CC)CC.N#C[N-]C#N [1,2,3-tris(diethylamino)-cyclopropenylium dicyanoamide] | 1016.38 ± 1.9 kg/m3 | 1013.27 ± 1.9 kg/m3 | 1010.14 ± 1.9 kg/m3 | 1007 ± 1.9 kg/m3 | 1003.91 ± 1.9 kg/m3 | 1000.79 ± 1.9 kg/m3 | 997.7 ± 1.9 kg/m3 | 994.62 ± 1.9 kg/m3 | 991.55 ± 1.9 kg/m3 | 988.5 ± 1.9 kg/m3 | 985.46 ± 1.8 kg/m3 | 982.43 ± 1.8 kg/m3 | 979.41 ± 1.8 kg/m3 | 976.41 ± 1.8 kg/m3 | 973.4 ± 1.8 kg/m3 | 970.42 ± 1.8 kg/m3
CCC[N+](C)(C)CC.O=S(=O)([N-]S(=O)(=O)C(F)(F)F)C(F)(F)F | 1420.02 ± 0.63 kg/m3 | 1415.26 ± 0.62 kg/m3 | 1410.6 ± 0.62 kg/m3 | 1405.96 ± 0.61 kg/m3 | 1401.26 ± 0.61 kg/m3 | 1396.46 ± 0.6 kg/m3 | 1391.81 ± 0.6 kg/m3 | 1387.91 ± 0.59 kg/m3 | 1383.36 ± 0.59 kg/m3 | 1379.82 ± 0.58 kg/m3 | 1375.4 ± 0.6 kg/m3 | 1370.97 ± 0.58 kg/m3 | 1366.49 ± 0.58 kg/m3 | 1361.67 ± 0.57 kg/m3 | 1357.66 ± 0.56 kg/m3 | 1353.3 ± 0.56 kg/m3

From the NIST ThermoML archive (doi:10.1016/j.fluid.2014.05.021)
